Starred links: 1 amine or outer side, 2 acyl side, 3 side chain; linkers in the order of their positions; H or OH if unused. Non-standard residues stand in square brackets, D forms with d. Residues, ends and D or L forms follow the SMILES beside them. Groups on a side chain read outwards from the residue. *: point of attachment. Ala(pyrazol-1-yl) = N[C@@H](Cn1cccn1)C(=O)O; Ala(4-thiazolyl) = N[C@@H](Cc1cscn1)C(=O)O; γGlu = O=C(O)[C@H](CCC(=O)[*:2])N[*:1]; X1 = O=C([C@H](Cn1cncn1)N[*:1])[*:2]; Palmitoyl = CCCCCCCCCCCCCCCC(=O)*; Aib = CC(C)(N)C(=O)O
Molecular target: T1, human GLP-1R (Homo sapiens, UniProt P43220)
T1 construct: expressed in transfected cells
T1 sequence (P43220 24-463): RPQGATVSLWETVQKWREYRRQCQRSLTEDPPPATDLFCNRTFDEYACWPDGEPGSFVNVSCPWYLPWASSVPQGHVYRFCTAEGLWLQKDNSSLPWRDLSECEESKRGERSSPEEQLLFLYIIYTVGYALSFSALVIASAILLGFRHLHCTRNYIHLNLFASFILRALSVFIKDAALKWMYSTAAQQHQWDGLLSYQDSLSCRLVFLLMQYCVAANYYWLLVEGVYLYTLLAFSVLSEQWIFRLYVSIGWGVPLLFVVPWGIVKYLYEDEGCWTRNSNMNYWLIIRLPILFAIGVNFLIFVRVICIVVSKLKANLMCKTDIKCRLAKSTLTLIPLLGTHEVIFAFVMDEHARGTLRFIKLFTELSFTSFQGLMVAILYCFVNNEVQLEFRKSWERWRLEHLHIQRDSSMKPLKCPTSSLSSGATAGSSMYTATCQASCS
Experiment: GLP-1 receptor efficacy assay (cAMP formation, FlashPlate cAMP kit)
Type: cell-based
Details: HEK293 cells expressing human GLP-1R; cAMP formed, 15 min at 37° C.
Method: The 5′-end primers additionally encoded a near Kozak consensus sequence to ensure efficient translation.
48 hr after transfection, cells were seeded for limited dilution cloning and selected with 1 mg/ml G418 in the culture medium.

| EC50 [nM] | SMILES |
| --- | --- |
| 0.21 | CCCCCCCCCCCCCCCC(=O)N[C@@H](CCC(=O)NCCCC[C@H](NC(=O)[C@H](CO)NC(=O)[C@H](CC(=O)O)NC(=O)[C@H](CC(C)C)NC(=O)[C@H](Cc1ccc(O)cc1)NC(=O)[C@H](CCCCN)NC(=O)[C@H](CO)NC(=O)[C@H](Cc1ccc(O)cc1)NC(=O)[C@H](CC(=O)O)NC(=O)[C@H](CO)NC(=O)[C@@H](NC(=O)[C@H](Cc1ccccc1)NC(=O)[C@@H](NC(=O)CNC(=O)[C@H](Cc1c[nH]cn1)NC(=O)C(C)(C)NC(=O)[C@@H](N)Cc1c[nH]cn1)[C@@H](C)O)[C@@H](C)O)C(=O)N[C@@H](C)C(=O)N[C@@H](C)C(=O)N[C@@H](Cc1c[nH]cn1)C(=O)N[C@@H](CC(=O)O)C(=O)N[C@@H](Cc1ccccc1)C(=O)N[C@H](C(=O)N[C@@H](CCC(=O)O)C(=O)N[C@@H](Cc1c[nH]c2ccccc12)C(=O)N[C@@H](CC(C)C)C(=O)N[C@@H](CC(C)C)C(=O)N[C@@H](CO)C(=O)N[C@@H](C)C(N)=O)C(C)C)C(=O)O [Compound 1] (H-H[Aib]HGTFTSDYSKYLDSK([γGlu-Palmitoyl])AAHDFVEWLLSA-NH2) |
| 0.09 | CCCCCCCCCCCCCCCC(=O)N[C@@H](CCC(=O)NCCCC[C@H](NC(=O)[C@H](CO)NC(=O)[C@H](CC(=O)O)NC(=O)[C@H](CC(C)C)NC(=O)[C@H](Cc1ccc(O)cc1)NC(=O)[C@H](CCCCN)NC(=O)[C@H](CO)NC(=O)[C@H](Cc1ccc(O)cc1)NC(=O)[C@H](CC(=O)O)NC(=O)[C@H](CO)NC(=O)[C@@H](NC(=O)[C@H](Cc1ccccc1)NC(=O)[C@@H](NC(=O)CNC(=O)[C@H](C)NC(=O)C(C)(C)NC(=O)[C@@H](N)Cc1c[nH]cn1)[C@@H](C)O)[C@@H](C)O)C(=O)N[C@@H](C)C(=O)N[C@@H](C)C(=O)N[C@@H](Cc1c[nH]cn1)C(=O)N[C@@H](CC(=O)O)C(=O)N[C@@H](Cc1ccccc1)C(=O)N[C@H](C(=O)N[C@@H](CCC(=O)O)C(=O)N[C@@H](Cc1c[nH]c2ccccc12)C(=O)N[C@@H](CC(C)C)C(=O)N[C@@H](CC(C)C)C(=O)N[C@@H](CO)C(=O)N[C@@H](C)C(N)=O)C(C)C)C(=O)O [Compound 17] (H-H[Aib]AGTFTSDYSKYLDSK([γGlu-Palmitoyl])AAHDFVEWLLSA-NH2) |
| 0.09 | CCCCCCCCCCCCCCCC(=O)N[C@@H](CCC(=O)NCCCC[C@H](NC(=O)[C@H](CO)NC(=O)[C@H](CC(=O)O)NC(=O)[C@H](CC(C)C)NC(=O)[C@H](Cc1ccc(O)cc1)NC(=O)[C@H](CCCCN)NC(=O)[C@H](CO)NC(=O)[C@H](Cc1ccc(O)cc1)NC(=O)[C@H](CC(=O)O)NC(=O)[C@H](CO)NC(=O)[C@@H](NC(=O)[C@H](Cc1ccccc1)NC(=O)[C@@H](NC(=O)CNC(=O)[C@H](CO)NC(=O)C(C)(C)NC(=O)[C@@H](N)Cc1c[nH]cn1)[C@@H](C)O)[C@@H](C)O)C(=O)N[C@@H](C)C(=O)N[C@@H](C)C(=O)N[C@@H](Cc1c[nH]cn1)C(=O)N[C@@H](CC(=O)O)C(=O)N[C@@H](Cc1ccccc1)C(=O)N[C@H](C(=O)N[C@@H](CCC(=O)O)C(=O)N[C@@H](Cc1c[nH]c2ccccc12)C(=O)N[C@@H](CC(C)C)C(=O)N[C@@H](CC(C)C)C(=O)N[C@@H](CO)C(=O)N[C@@H](C)C(N)=O)C(C)C)C(=O)O [Compound 18] (H-H[Aib]SGTFTSDYSKYLDSK([γGlu-Palmitoyl])AAHDFVEWLLSA-NH2) |
| 0.11 | CCCCCCCCCCCCCCCC(=O)N[C@@H](CCC(=O)NCCCC[C@H](NC(=O)[C@H](CO)NC(=O)[C@H](CC(=O)O)NC(=O)[C@H](CC(C)C)NC(=O)[C@H](Cc1ccc(O)cc1)NC(=O)[C@H](CCCCN)NC(=O)[C@H](CO)NC(=O)[C@H](Cc1ccc(O)cc1)NC(=O)[C@H](CC(=O)O)NC(=O)[C@H](CO)NC(=O)[C@@H](NC(=O)[C@H](Cc1ccccc1)NC(=O)[C@@H](NC(=O)CNC(=O)[C@H](Cc1cscn1)NC(=O)C(C)(C)NC(=O)[C@@H](N)Cc1c[nH]cn1)[C@@H](C)O)[C@@H](C)O)C(=O)N[C@@H](C)C(=O)N[C@@H](C)C(=O)N[C@@H](Cc1c[nH]cn1)C(=O)N[C@@H](CC(=O)O)C(=O)N[C@@H](Cc1ccccc1)C(=O)N[C@H](C(=O)N[C@@H](CCC(=O)O)C(=O)N[C@@H](Cc1c[nH]c2ccccc12)C(=O)N[C@@H](CC(C)C)C(=O)N[C@@H](CC(C)C)C(=O)N[C@@H](CO)C(=O)N[C@@H](C)C(N)=O)C(C)C)C(=O)O [Compound 23] (H-H[Aib][Ala(4-thiazolyl)]GTFTSDYSKYLDSK([γGlu-Palmitoyl])AAHDFVEWLLSA-NH2) |
| 0.09 | CCCCCCCCCCCCCCCC(=O)N[C@@H](CCC(=O)NCCCC[C@H](NC(=O)[C@H](CO)NC(=O)[C@H](CC(=O)O)NC(=O)[C@H](CC(C)C)NC(=O)[C@H](Cc1ccc(O)cc1)NC(=O)[C@H](CCCCN)NC(=O)[C@H](CO)NC(=O)[C@H](Cc1ccc(O)cc1)NC(=O)[C@H](CC(=O)O)NC(=O)[C@H](CO)NC(=O)[C@@H](NC(=O)[C@H](Cc1ccccc1)NC(=O)[C@@H](NC(=O)CNC(=O)[C@H](Cn1cncn1)NC(=O)C(C)(C)NC(=O)[C@@H](N)Cc1c[nH]cn1)[C@@H](C)O)[C@@H](C)O)C(=O)N[C@@H](C)C(=O)N[C@@H](C)C(=O)N[C@@H](Cc1c[nH]cn1)C(=O)N[C@@H](CC(=O)O)C(=O)N[C@@H](Cc1ccccc1)C(=O)N[C@H](C(=O)N[C@@H](CCC(=O)O)C(=O)N[C@@H](Cc1c[nH]c2ccccc12)C(=O)N[C@@H](CC(C)C)C(=O)N[C@@H](CC(C)C)C(=O)N[C@@H](CO)C(=O)N[C@@H](C)C(N)=O)C(C)C)C(=O)O [Compound 25] (H-H[Aib][X1]GTFTSDYSKYLDSK([γGlu-Palmitoyl])AAHDFVEWLLSA-NH2) |
| 0.11 | CCCCCCCCCCCCCCCC(=O)N[C@@H](CCC(=O)NCCCC[C@H](NC(=O)[C@H](CO)NC(=O)[C@H](CC(=O)O)NC(=O)[C@H](CC(C)C)NC(=O)[C@H](Cc1ccc(O)cc1)NC(=O)[C@H](CCCCN)NC(=O)[C@H](CO)NC(=O)[C@H](Cc1ccc(O)cc1)NC(=O)[C@H](CC(=O)O)NC(=O)[C@H](CO)NC(=O)[C@@H](NC(=O)[C@H](Cc1ccccc1)NC(=O)[C@@H](NC(=O)CNC(=O)[C@H](Cn1cccn1)NC(=O)C(C)(C)NC(=O)[C@@H](N)Cc1c[nH]cn1)[C@@H](C)O)[C@@H](C)O)C(=O)N[C@@H](C)C(=O)N[C@@H](C)C(=O)N[C@@H](Cc1c[nH]cn1)C(=O)N[C@@H](CC(=O)O)C(=O)N[C@@H](Cc1ccccc1)C(=O)N[C@H](C(=O)N[C@@H](CCC(=O)O)C(=O)N[C@@H](Cc1c[nH]c2ccccc12)C(=O)N[C@@H](CC(C)C)C(=O)N[C@@H](CC(C)C)C(=O)N[C@@H](CO)C(=O)N[C@@H](C)C(N)=O)C(C)C)C(=O)O [Compound 28] (H-H[Aib][Ala(pyrazol-1-yl)]GTFTSDYSKYLDSK([γGlu-Palmitoyl])AAHDFVEWLLSA-NH2) |

— patent US9169310B2 (Zealand Pharma A/S, priority 2010, dated 2015)
